In general, MIC refers to the lowest concentration found to suppress growth. By pIC50 is commonly meant the IC50 on a negative log10 scale, so that one unit is a factor of ten.

The record followed here is ChEMBL document CHEMBL1137638, “TEM-158 (CMT-9), a new member of the CMT-type extended-spectrum beta-lactamases” (Antimicrob Agents Chemother, 2007).

SMILES strings stand for the structures. pIC50: −log10 of the molar value. In brackets after ≈: the same amount, converted by molar mass.

For test [1], the system named is Escherichia coli. Nature of the test: Antibacterial activity against Escherichia coli BER1 producing beta-lactamase pI 5.2 and pI 5.4 by microdilution method. Format: functional. Background: In broth dilution the organism is exposed to a series of concentrations in liquid medium.
Test [2] concerns Escherichia coli. Nature of the test: Antibacterial activity against rifampin-resistant Escherichia coli C600 transconjugant producing beta-lactamase of pI 5.2 by microdilution method. In kind it is functional.
In test [3] the test system is Escherichia coli. The experiment in a line: Antibacterial activity against Escherichia coli DH5alpha producing beta-lactamase TEM-158 by microdilution method. In kind it is functional.
Test [4] concerns Escherichia coli. The experiment in a line: Antibacterial activity against Escherichia coli DH5alpha producing beta-lactamase TEM-12 by microdilution method. Format: functional.
The subject of test [5] is Escherichia coli. Nature of the test: Antibacterial activity against Escherichia coli DH5alpha producing beta-lactamase TEM-35 by microdilution method. In kind it is functional.
The subject of test [6] is Escherichia coli. The experiment in a line: Antibacterial activity against Escherichia coli DH5alpha producing beta-lactamase TEM-1 by microdilution method. In kind it is functional.
Test [7] deals with Escherichia coli. Nature of the test: Antibacterial activity against Escherichia coli DH5alpha by microdilution method. Format: functional.
Test [8] concerns Escherichia coli. Nature of the test: Antibacterial activity against rifampin-resistant Escherichia coli C600 by microdilution method. In kind it is functional.
The nature of test [9]: Inhibition of Escherichia coli DH5alpha beta-lactamase TEM-12.
The nature of test [10]: Inhibition of Escherichia coli CF0042 beta-lactamase TEM-35.
The nature of test [11]: Inhibition of Escherichia coli DH5alpha CL1179 clone beta-lactamase TEM-152 after 10 mins.
Test [12] is described as follows: Inhibition of Escherichia coli DH10B beta-lactamase TEM-121 after 10 mins. Details: species or system Escherichia coli str. K-12 substr. DH10B.
A short description of test [13]: Inhibition of Escherichia coli TO799 beta-lactamase TEM-125 after 10 mins.

Take `CO/N=C(\C(=O)N[C@@H]1C(=O)N2C(C(=O)[O-])=C(C[N+]3(C)CCCC3)CS[C@H]12)c1csc(N)n1`: the MIC against Escherichia coli [1] is 4 µg/mL (≈ 8.32 µM); in the test with Escherichia coli [2], 4 µg/mL (≈ 8.32 µM); in the test with Escherichia coli [3], 4 µg/mL (≈ 8.32 µM); with Escherichia coli [4], 1 µg/mL (≈ 2.08 µM); against Escherichia coli [5] it was below 0.06 µg/mL; with Escherichia coli [6], below 0.06 µg/mL. For the same molecule, the MIC in the test with Escherichia coli [7] and with Escherichia coli [8] was below 0.06 µg/mL in each case.
For the molecule `CC1(C)S[C@@H]2[C@H](NC(=O)[C@H](N)c3ccc(O)cc3)C(=O)N2[C@H]1C(=O)O` [AMOXICILLIN], the MIC against Escherichia coli [1], against Escherichia coli [2], with Escherichia coli [3], in the test with Escherichia coli [4], against Escherichia coli [5] and against Escherichia coli [6] was above 2050 µg/mL in each case. Further, the MIC in the test with Escherichia coli [7] and in the test on Escherichia coli [8] was 4 µg/mL (≈ 10.9 µM) in each case.
Consider `C[C@H]1[C@H](NC(=O)/C(=N\OC(C)(C)C(=O)O)c2csc(N)n2)C(=O)N1S(=O)(=O)O` [AZTREONAM], for which the MIC in the test with Escherichia coli [1] came to 1 µg/mL (≈ 2.3 µM); against Escherichia coli [2], 1 µg/mL (≈ 2.3 µM); in the test with Escherichia coli [3], 1 µg/mL (≈ 2.3 µM); with Escherichia coli [4], 4 µg/mL (≈ 9.19 µM).
`CO/N=C(\C(=O)N[C@@H]1C(=O)N2C(C(=O)O)=C(COC(C)=O)CS[C@H]12)c1csc(N)n1` [CEFOTAXIME]: the MIC is 0.25 µg/mL (≈ 0.549 µM) against Escherichia coli [1]; 0.25 µg/mL (≈ 0.549 µM) against Escherichia coli [2]; 0.25 µg/mL (≈ 0.549 µM) in the test on Escherichia coli [3]; 0.12 µg/mL (≈ 0.263 µM) against Escherichia coli [4]; 0.06 µg/mL (≈ 0.132 µM) against Escherichia coli [5]; 0.06 µg/mL (≈ 0.132 µM) against Escherichia coli [6]. For the same molecule, the MIC in the test with Escherichia coli [7] and against Escherichia coli [8] was 0.06 µg/mL (≈ 0.132 µM) in each case.
In the case of `CO[C@@]1(NC(=O)Cc2cccs2)C(=O)N2C(C(=O)O)=C(COC(N)=O)CS[C@@H]21` [CEFOXITIN], the MIC with Escherichia coli [1] came out at 0.25 µg/mL (≈ 0.585 µM); against Escherichia coli [2], 4 µg/mL (≈ 9.36 µM); with Escherichia coli [3] it was 4 µg/mL (≈ 9.36 µM); in the test with Escherichia coli [4], 4 µg/mL (≈ 9.36 µM); in the test with Escherichia coli [5], 4 µg/mL (≈ 9.36 µM); with Escherichia coli [6] it was 4 µg/mL (≈ 9.36 µM). The MIC in the test on Escherichia coli [7] and with Escherichia coli [8] was 4 µg/mL (≈ 9.36 µM) throughout.
As to `CC(C)(O/N=C(\C(=O)N[C@@H]1C(=O)N2C(C(=O)[O-])=C(C[n+]3ccccc3)CS[C@H]12)c1csc(N)n1)C(=O)O` [CEFTAZIDIME], the MIC with Escherichia coli [1] was determined as 16 µg/mL (≈ 29.3 µM); against Escherichia coli [2], 16 µg/mL (≈ 29.3 µM); against Escherichia coli [3], 32 µg/mL (≈ 58.5 µM); against Escherichia coli [4], 32 µg/mL (≈ 58.5 µM); in the test on Escherichia coli [5] it was 0.25 µg/mL (≈ 0.457 µM); in the test with Escherichia coli [6], 0.12 µg/mL (≈ 0.22 µM). Also, the MIC in the test with Escherichia coli [7] and in the test on Escherichia coli [8] was 0.12 µg/mL (≈ 0.22 µM) each time.
For the molecule `CO/N=C(\C(=O)N[C@@H]1C(=O)N2C(C(=O)O)=C(COC(N)=O)CS[C@H]12)c1ccco1` [CEFUROXIME], the MIC was determined as 8 µg/mL (≈ 18.9 µM) against Escherichia coli [1]; 4 µg/mL (≈ 9.43 µM) against Escherichia coli [2]; 8 µg/mL (≈ 18.9 µM) against Escherichia coli [3]; 8 µg/mL (≈ 18.9 µM) against Escherichia coli [4]; 8 µg/mL (≈ 18.9 µM) in the test on Escherichia coli [5]; 4 µg/mL (≈ 9.43 µM) in the test on Escherichia coli [6]. The MIC against Escherichia coli [7] and with Escherichia coli [8] was 4 µg/mL (≈ 9.43 µM) each time.
On to `CC(=O)OCC1=C(C(=O)O)N2C(=O)[C@@H](NC(=O)Cc3cccs3)[C@H]2SC1` [CEPHALOTHIN], for which the MIC against Escherichia coli [1] came to 32 µg/mL (≈ 80.7 µM); with Escherichia coli [2], 16 µg/mL (≈ 40.4 µM); in the test on Escherichia coli [3], 32 µg/mL (≈ 80.7 µM); with Escherichia coli [4], 8 µg/mL (≈ 20.2 µM); against Escherichia coli [5], 16 µg/mL (≈ 40.4 µM); with Escherichia coli [6] it was 4 µg/mL (≈ 10.1 µM). Moreover, the MIC against Escherichia coli [7] and in the test with Escherichia coli [8] was 4 µg/mL (≈ 10.1 µM) throughout.
For the molecule `O=C(O)[C@H]1/C(=C/CO)O[C@@H]2CC(=O)N21` [CLAVULANIC ACID], the pIC50 was 7.70 in [9]; 4.57 in test [10]; 6.00 in test [11]; 6.00 in [12]; 4.87 in test [13].
`C[C@@H](O)[C@H]1C(=O)N2C(C(=O)O)=C(SCCNC=N)C[C@H]12` [IMIPENEM ANHYDROUS]: the MIC against Escherichia coli [4] turned out to be 0.25 µg/mL (≈ 0.835 µM).
In the case of `CCN1CCN(C(=O)N[C@@H](C(=O)N[C@@H]2C(=O)N3[C@@H]2SC(C)(C)[C@@H]3C(=O)O)c2ccccc2)C(=O)C1=O` [PIPERACILLIN], the MIC against Escherichia coli [1] was 2050 µg/mL (≈ 3960 µM); against Escherichia coli [2] it was 2050 µg/mL (≈ 3960 µM); in the test on Escherichia coli [3] it was 2050 µg/mL (≈ 3960 µM); in the test on Escherichia coli [4], above 2050 µg/mL; against Escherichia coli [5], above 2050 µg/mL; in the test with Escherichia coli [6], 512 µg/mL (≈ 989 µM). Moreover, the MIC in the test on Escherichia coli [7] and against Escherichia coli [8] was 2 µg/mL (≈ 3.86 µM) each time.
With `C[C@]1(Cn2ccnn2)[C@H](C(=O)O)N2C(=O)C[C@H]2S1(=O)=O` [TAZOBACTAM], the pIC50 in [9] is 6.89; in [10], 5.74.
Turning to `CC1(C)S[C@@H]2[C@H](NC(=O)[C@H](C(=O)O)c3ccsc3)C(=O)N2[C@H]1C(=O)O` [TICARCILLIN], the MIC against Escherichia coli [1], against Escherichia coli [2], with Escherichia coli [3], in the test on Escherichia coli [4], with Escherichia coli [5] and against Escherichia coli [6] was above 2050 µg/mL each time. Moreover, the MIC with Escherichia coli [7] and in the test on Escherichia coli [8] was 2 µg/mL (≈ 5.2 µM) each time.
